Assay results taken from ChEMBL document CHEMBL5042506, “Discovery of Orally Available Retinoic Acid Receptor-Related Orphan Receptor γ-t/Dihydroorotate Dehydrogenase Dual Inhibitors for the Treatment of Refractory Inflammatory Bowel Disease” (J Med Chem, 2022).

Columns and labels:
Assay type in all cases: ADME, organism-based
[1] = Oral bioavailability in ICR mouse at 5 mg/kg measured over 24 hrs by LC-MS/MS analysis; settings: in vivo
[2] = AUC (0 to last) in ICR mouse at 1 mg/kg, iv measured over 24 hrs by LC-MS/MS analysis; parameters: route intravenous, dose 1 mg/kg, time >24; settings: in vivo
[3] = Volume of distribution at steady state in ICR mouse at 1 mg/kg, iv measured over 24 hrs by LC-MS/MS analysis; settings: in vivo, read-out: Vdss
[4] = Cmax in ICR mouse at 1 mg/kg, iv measured over 24 hrs by LC-MS/MS analysis; parameters: route intravenous, dose 1 mg/kg, time >24; settings: in vivo
[5] = Clearance in ICR mouse at 1 mg/kg, iv measured over 24 hrs by LC-MS/MS analysis; settings: in vivo
[6] = AUC (0 to last) in ICR mouse at 5 mg/kg, po measured over 24 hrs by LC-MS/MS analysis; parameters: route oral, dose 5 mg/kg, time >24; settings: in vivo
[7] = Cmax in ICR mouse at 5 mg/kg, po measured over 24 hrs by LC-MS/MS analysis; parameters: route oral, dose 5 mg/kg, time >24; settings: in vivo

bioavailability [1]: 18.9% | AUC(0-t) at 24 h [2]: 634 ng·h/mL | Vd [3]: 2.95 L/kg | Cmax [4]: 590 ng/mL | clearance [5]: 26.6 mL/min/kg | AUC(0-t) at 24 h [6]: 599 ng·h/mL | Cmax [7]: 213 ng/mL
Structure (SMILES): Cc1c(Nc2nc3c(s2)CCCC3O)cc(Cl)cc1OC1CCN(C(=O)CC(C(F)(F)F)C(F)(F)F)CC1 (racemic)
